Test results published in PMC8779255, “Determining the Anticancer Activity of Sphingosine Kinase Inhibitors Containing Heteroatoms in Their Tail Structure” (Pharmaceutics, 2022).

Experiments:
HCT116 cells = test: MTT cell viability assay; assay type: cell-based, human
Description: (§1) The HT29 and HCT116 cells (human colon cancer), AGS (human gastric cancer), and MIA PaCa-2 cells (human pancreatic cancer) were purchased from Korean Cell Line Bank (Seoul, Korea). Cancer cells were maintained in RPMI (HT29 and AGS) and DMEM (HCT116 and MIA PaCa-2) culture media supplemented with 10% fetal bovine serum (FBS) and 100 U/mL penicillin and streptomycin at 37 °C in a 95% humidified incubator containing 5% CO2. The cytotoxic effect of the compounds was assessed using the MTT cell viability assay. Briefly, 3 × 10^3 cells/well were grown in 96-well plates for 24 h. After treatment with desired concentration of respective compounds for 24 h or 48 h, the EZ-CYTOTOX (10 µM) reagent was added in each well and incubated for 90 min. The absorbance was measured at 450 nm wavelength using Skanlt software 5.0 (Thermo Scientific, Waltham, MA, USA) installed on a Multiskan GO (Thermo Scientific, Waltham, MA, USA) spectrophotometer. Each experiment was independently repeated three times (n = 12).

HT29 cells [1] = test: MTT cell viability assay; assay type: cell-based, human
Description: as §1

SK2 enzyme = molecular target: T1, SK2 enzyme (Homo sapiens, UniProt Q9NRA0); test: SK activity assay (Adapta screening system); assay type: biochemical; settings: 20 μM, Figure 5A
T1 construct: purchased Thermo Fisher Scientific
Description: (§2) The effect of compounds in sphingosine kinase activity was examined using the […] screening system (Thermo Fisher Scientific System, Waltham, MA, USA). The kinase inhibition ability of compounds 1-11 along with RB005 was measured with final concentration of 20 μM. […] The data were presented as percentage inhibition of SK enzyme by individual compounds.

SK1 enzyme = molecular target: T2, SK1 enzyme (Homo sapiens, UniProt Q9NYA1); test: SK activity assay (Adapta screening system); assay type: biochemical; settings: 20 μM, Figure 5A
T2 construct: purchased Thermo Fisher Scientific
Description: as §2

S1PR5 = system: S1PR5; set-up: method as in PMID 27297359; settings: in Figure 1, no unit; cited from earlier work
S1PR1 = system: S1PR1; set-up: method as in PMID 27297359; settings: in Figure 1, no unit; cited from earlier work
S1PR4 = system: S1PR4; set-up: method as in PMID 27297359; settings: in Figure 1, no unit; cited from earlier work
S1PR2 = system: S1PR2; set-up: method as in PMID 27297359; settings: in Figure 1, no unit; cited from earlier work
S1PR3 = system: S1PR3; set-up: method as in PMID 27297359; settings: in Figure 1, no unit; cited from earlier work
PP2A in HCT116 cells = molecular target: T3, PP2A in HCT116 cells (Homo sapiens, UniProt P67775); test: PP2A activity assay (immunoprecipitation kit); assay type: cell-based; settings: HCT116, 24 h, 20 µM of compounds 10, 11 and 13; vs nontreated control cells
T3 construct: endogenous in cells; host or cells: HCT116
Description: The activity of PP2A was measured by using the PP2A kit according to the manufacturer’s instruction. The cell lysate was incubated with anti PP2A, C subunit antibody, and protein A agarose slurry for 2 h at 4 °C. The phosphopeptide solution (60 µL) was mixed and incubated at 30 °C for 10 min in a shaker. After a brief centrifuge, a 25 µL sample was liquated in ½ volume microplate and 100 µL malachite green phosphate detection working solution was added. After color development, absorbance was taken at 650 nm in a Multiskan GO microplate reader. A phosphate standard curve was constructed using phosphate standard, and results were calculated using this standard curve. This experiment was repeated three times (n = 6).

CYP2C19 = CYP2C19 (Homo sapiens, UniProt P33261); test: Inhibition of CYP enzymes activity, human liver microsomes; settings: human liver microsomes 0.25 mg/mL, 10 μM, S-mephenytoin substrate
Description: (§3) By simultaneously analyzing metabolites, the ability of the six compounds to inhibit drug metabolism enzymes was evaluated.
(§4) Metabolites of each CYP coenzyme indicator drug generated through the above reaction were analyzed using the Shimadzu Nexera XR system and TSQ vantage (Thermo). The HPLC column was a Kinetex C18 column (2.1 × 100 mm^2, 2.6 μm particle size; Phenomenex, Torrance, CA, USA), and the mobile phase was distilled water (A) containing 0.1% formic acid and acetonitrile (B) containing 0.1% formic acid. […] The generated metabolites were quantified using MRM (Multiple Reaction Monitoring) quantification modes, and data were analyzed using Xcalibur (version 1.6.1).

[2] = In vitro metabolic stability in liver microsomes
Description: Microsome incubation was measured in triplicate in a 1.5 mL Eppendorf tube with 0.1 M potassium phosphate buffer (pH 7.4). […] It has a final volume of 100 mL in the presence of an NADPH regeneration system. In the final incubation mixture, 0.5 mg/mL HLM, 0.1 M potassium phosphate buffer (pH 7.4), and NADPH regeneration system (1 mM NADPH, 10 mM MgCl2) were included. In the pre-incubation mixture, HLM was added, and the mixture was run in a shaking incubator at approximately 350 rpm and 37 °C for 5 min under a Thermomixer (Eppendorf, Hamburg, Germany). Reactions were initiated by the addition of 1 mM NADPH and then quenched by the addition of 40 μL of ice-cold acetonitrile containing 10 μM chlorpropamide (CPP) as an internal standard at 0 and 30 min. After quenching, centrifugation of the incubation mixture was performed at 15,000× g for 5 min at 4 °C. An aliquot of 2 µL of the supernatant was injected into the LC-MS/MS system. The LC-MS/MS system was Xcalibur version 1.1.1 (Thermo Fisher Scientific Inc., Waltham, MA, USA).

CYP3A4 = molecular target: T4, CYP3A4 (Homo sapiens, UniProt P08684); test: Inhibition of CYP enzymes activity, human liver microsomes; assay type: in vitro ADME; settings: human liver microsomes 0.25 mg/mL, 10 μM, midazolam substrate
T4 construct: Human liver microsomes (0.25 mg/mL); from tissue; host or cells: human liver microsomes
Description: as §3, §4

CYP2D6 = CYP2D6 (Homo sapiens, UniProt P10635); test: as above; settings: human liver microsomes 0.25 mg/mL, 10 μM, dextromethorphan substrate
Description: (§5) Afterward, to terminate the reaction, an acetonitrile solution containing an internal standard (terfenadine) was added, centrifuged for 5 min (14,000 rpm, 4 °C), and the supernatant was injected into the LC-MS/MS system. By simultaneously analyzing metabolites, the ability of the six compounds to inhibit drug metabolism enzymes was evaluated.
as §4

SK2 = settings: known compounds, Figure 1; cited from earlier work
[3] = In vitro metabolic stability in liver microsomes; assay type: in vitro ADME, rat
[4] = In vitro metabolic stability in liver microsomes; assay type: in vitro ADME, mouse
CYP2C9 = CYP2C9 (Homo sapiens, UniProt P11712); test: Inhibition of CYP enzymes activity, human liver microsomes; settings: human liver microsomes 0.25 mg/mL, 10 μM, diclofenac substrate
Description: as §3, §4

SK1 = settings: known compounds, Figure 1; cited from earlier work
CYP1A2 = molecular target: T5, CYP1A2 (Homo sapiens, UniProt P05177); test: Inhibition of CYP enzymes activity, human liver microsomes; settings: human liver microsomes 0.25 mg/mL, 10 μM, phenacetin substrate
T5 sequence (P05177 1-516): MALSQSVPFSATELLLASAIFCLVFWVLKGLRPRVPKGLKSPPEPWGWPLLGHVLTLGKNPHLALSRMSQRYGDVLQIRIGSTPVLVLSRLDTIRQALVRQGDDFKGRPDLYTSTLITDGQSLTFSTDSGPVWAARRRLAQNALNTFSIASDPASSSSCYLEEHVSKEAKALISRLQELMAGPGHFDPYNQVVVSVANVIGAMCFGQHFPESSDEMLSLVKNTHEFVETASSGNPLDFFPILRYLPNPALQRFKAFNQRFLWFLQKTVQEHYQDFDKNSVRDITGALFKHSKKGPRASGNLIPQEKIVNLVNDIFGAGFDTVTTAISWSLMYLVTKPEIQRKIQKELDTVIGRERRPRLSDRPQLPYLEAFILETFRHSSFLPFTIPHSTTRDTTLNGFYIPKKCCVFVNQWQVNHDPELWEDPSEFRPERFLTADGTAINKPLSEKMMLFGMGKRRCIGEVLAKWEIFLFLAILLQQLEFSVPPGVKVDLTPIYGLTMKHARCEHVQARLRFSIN
Description: as §5, §4

HT29 cells [5] = test: Annexin V-FITC/PI staining, flow cytometry; assay type: cell-based, human; settings: HT29, 10 and/or 20 µM, 24 h
Description: After treating HT29 and HCT116 cells with compounds 10, 11, 13 and FTY720 according to the manufacturer’s instruction, the annexin V and PI staining technique was employed to determine apoptosis in the cells. Briefly, cells (2.5 × 10^5 cells/well) were seeded in 12-well plates and treated with 10 and/or 20 µM of compounds for 24 h. Cells were collected using trypsin-EDTA and stained with annexin V-FITC dye for 15 min at room temperature, followed by PI staining for 20 min and analyzed by flow cytometer (MACSQuant Analyzer 10; Miltenyi Biotec, Bergisch Gladbach, Germany). The data was analyzed using MACSQuantify^TM version 2.8 software (Miltenyi Biotec, Bergisch Gladbach, Germany) and presented as early apoptosis, late apoptosis, or combined apoptosis percentage. Each experiment was repeated three times independently (n = 6).

[6] = % remaining after 30 min, NADPH

T3 sequence (P67775 whole entry): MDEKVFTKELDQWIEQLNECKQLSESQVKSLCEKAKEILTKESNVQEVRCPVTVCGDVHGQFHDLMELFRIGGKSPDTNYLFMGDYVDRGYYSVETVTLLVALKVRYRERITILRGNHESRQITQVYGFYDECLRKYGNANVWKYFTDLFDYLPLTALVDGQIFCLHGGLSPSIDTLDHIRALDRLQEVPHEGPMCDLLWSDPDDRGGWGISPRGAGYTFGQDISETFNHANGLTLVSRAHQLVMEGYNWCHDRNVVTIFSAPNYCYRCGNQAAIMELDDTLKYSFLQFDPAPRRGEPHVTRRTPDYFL
T2 sequence (Q9NYA1 whole entry): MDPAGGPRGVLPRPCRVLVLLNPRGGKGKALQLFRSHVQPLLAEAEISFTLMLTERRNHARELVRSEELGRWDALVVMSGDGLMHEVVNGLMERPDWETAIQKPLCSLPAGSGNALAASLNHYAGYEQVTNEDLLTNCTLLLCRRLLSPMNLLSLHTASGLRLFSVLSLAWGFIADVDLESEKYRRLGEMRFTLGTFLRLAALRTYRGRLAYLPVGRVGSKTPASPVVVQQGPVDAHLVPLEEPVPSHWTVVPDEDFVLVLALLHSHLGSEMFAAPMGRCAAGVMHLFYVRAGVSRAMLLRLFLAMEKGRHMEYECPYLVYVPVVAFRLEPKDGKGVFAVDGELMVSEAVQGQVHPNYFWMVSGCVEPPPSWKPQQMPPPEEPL
CYP2D6, sequence (P10635 whole entry): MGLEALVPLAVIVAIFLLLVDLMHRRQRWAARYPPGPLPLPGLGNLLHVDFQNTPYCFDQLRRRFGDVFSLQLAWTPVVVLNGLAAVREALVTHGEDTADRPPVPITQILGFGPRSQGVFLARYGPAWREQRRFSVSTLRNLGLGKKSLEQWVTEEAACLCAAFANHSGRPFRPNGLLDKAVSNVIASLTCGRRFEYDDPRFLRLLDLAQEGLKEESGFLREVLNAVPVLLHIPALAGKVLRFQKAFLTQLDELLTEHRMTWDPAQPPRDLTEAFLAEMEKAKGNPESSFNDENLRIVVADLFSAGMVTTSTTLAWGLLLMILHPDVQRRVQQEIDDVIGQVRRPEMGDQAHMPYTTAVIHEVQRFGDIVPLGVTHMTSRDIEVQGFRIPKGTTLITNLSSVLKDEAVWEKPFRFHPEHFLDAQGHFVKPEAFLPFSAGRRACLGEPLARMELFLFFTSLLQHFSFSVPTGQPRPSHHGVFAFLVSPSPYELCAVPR
CYP2C9, sequence (P11712 whole entry): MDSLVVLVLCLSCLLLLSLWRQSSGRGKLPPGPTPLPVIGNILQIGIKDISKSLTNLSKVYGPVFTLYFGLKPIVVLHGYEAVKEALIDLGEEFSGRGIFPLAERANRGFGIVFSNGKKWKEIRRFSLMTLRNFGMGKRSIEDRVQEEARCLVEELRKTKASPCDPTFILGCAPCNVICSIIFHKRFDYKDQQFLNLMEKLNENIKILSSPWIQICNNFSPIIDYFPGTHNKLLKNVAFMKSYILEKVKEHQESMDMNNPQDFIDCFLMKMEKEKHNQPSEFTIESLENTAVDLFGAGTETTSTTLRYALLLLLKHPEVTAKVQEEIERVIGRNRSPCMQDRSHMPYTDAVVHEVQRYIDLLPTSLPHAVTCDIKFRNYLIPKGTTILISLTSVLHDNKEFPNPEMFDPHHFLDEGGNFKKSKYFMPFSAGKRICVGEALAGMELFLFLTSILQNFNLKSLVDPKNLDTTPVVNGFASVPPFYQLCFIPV
T4 sequence (P08684 whole entry): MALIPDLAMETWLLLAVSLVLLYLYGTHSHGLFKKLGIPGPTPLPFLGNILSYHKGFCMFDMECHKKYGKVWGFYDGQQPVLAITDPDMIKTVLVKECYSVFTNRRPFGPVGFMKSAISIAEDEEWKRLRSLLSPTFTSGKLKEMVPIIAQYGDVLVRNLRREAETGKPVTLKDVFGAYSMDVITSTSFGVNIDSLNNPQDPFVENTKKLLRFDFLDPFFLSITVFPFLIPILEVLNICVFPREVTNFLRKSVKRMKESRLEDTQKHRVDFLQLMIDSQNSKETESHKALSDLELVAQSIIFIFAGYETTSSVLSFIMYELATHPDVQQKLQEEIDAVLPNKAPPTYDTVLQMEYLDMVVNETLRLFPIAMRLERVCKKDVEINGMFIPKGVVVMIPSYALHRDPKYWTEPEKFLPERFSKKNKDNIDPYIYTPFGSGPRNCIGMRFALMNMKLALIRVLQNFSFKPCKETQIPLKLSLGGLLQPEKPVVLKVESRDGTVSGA
T1 sequence (Q9NRA0 whole entry): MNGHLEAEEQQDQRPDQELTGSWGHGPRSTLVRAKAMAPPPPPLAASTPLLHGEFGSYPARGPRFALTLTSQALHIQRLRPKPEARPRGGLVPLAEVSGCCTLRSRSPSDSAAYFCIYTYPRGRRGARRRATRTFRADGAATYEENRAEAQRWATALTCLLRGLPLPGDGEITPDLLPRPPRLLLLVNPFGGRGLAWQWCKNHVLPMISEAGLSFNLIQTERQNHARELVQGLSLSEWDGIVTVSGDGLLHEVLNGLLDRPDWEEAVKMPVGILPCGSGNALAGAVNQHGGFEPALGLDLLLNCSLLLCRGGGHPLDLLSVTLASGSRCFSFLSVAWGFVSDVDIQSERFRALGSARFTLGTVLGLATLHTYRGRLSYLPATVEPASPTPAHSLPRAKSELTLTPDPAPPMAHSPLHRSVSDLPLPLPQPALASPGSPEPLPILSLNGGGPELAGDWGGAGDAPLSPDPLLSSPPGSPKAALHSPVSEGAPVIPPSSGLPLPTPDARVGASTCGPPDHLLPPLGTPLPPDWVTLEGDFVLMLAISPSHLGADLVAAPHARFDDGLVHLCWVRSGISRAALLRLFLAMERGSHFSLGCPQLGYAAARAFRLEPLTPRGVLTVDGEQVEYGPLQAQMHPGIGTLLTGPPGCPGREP
CYP2C19, sequence (P33261 whole entry): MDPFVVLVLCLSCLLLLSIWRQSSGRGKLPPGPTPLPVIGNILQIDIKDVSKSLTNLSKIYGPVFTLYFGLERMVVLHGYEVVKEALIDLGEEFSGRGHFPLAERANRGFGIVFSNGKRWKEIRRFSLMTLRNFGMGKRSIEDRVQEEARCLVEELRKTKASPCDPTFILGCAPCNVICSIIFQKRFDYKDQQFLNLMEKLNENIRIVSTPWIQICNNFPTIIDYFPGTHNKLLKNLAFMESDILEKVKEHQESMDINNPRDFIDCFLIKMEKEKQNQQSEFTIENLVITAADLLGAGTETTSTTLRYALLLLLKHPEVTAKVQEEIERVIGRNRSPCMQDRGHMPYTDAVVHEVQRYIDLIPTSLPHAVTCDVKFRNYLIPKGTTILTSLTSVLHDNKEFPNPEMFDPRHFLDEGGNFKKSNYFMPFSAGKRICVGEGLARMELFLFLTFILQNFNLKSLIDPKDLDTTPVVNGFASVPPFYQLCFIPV

For `CCCCCCCOc1ccc(CCN2CCC(O)CC2)cc1` [Compound 3, 1-(4-(Heptyloxy)phenethyl)piperidin-4-ol], the “cytotoxic effect (cell viability)” value (HCT116 cells; HCT116, 20 and 40 µM, 24 h, Figure 2B) was “only 40 µM concentration of compounds 3, 5 and 9 shows significant cytotoxic effect”, the “cytotoxic effect (cell viability)” value (HT29 cells [1]; HT29, 20 and 40 µM, 24 h, Figure 2A) was “more cytotoxic than RB005 and 5-FU” and the “SK1/2 inhibitory effect compared to RB005 (SK2)” value (SK2 enzyme) was “three times higher”. For the same molecule, the “SK1/2 inhibitory effect compared to RB005 (SK1)” value (SK1 enzyme) was “three times higher”.
For `CC1=C(CN2CC(C(=O)O)C2)CCc2cc(OCCCCc3ccccc3)ccc21` [Compound W-061], the “Binding affinity, S1PR5” value (S1PR5) is listed as 10.5, the “Binding affinity, S1PR1” value (S1PR1) is listed as 4.11 and the “Binding affinity, S1PR4” value (S1PR4) is listed as 65.4. The “Binding affinity, S1PR2” value (S1PR2) was > 43800 and the “Binding affinity, S1PR3” value (S1PR3) was 1710.
For `CCCCCCCCc1ccc(CCC(N)(CO)CO)cc1` [FTY720], the PP2A activity increase (PP2A in HCT116 cells) was 1.65 fold, the “CYP2C19 activity (% of control activity)” value (CYP2C19) was 86.8% and the “liver microsomal stability, Human (%)” value ([2]; % remaining after 30 min, 0.5 mg/mL microsomes, NADPH) was 90.5%. The “liver microsomal stability (in words)” value ([2]; human) was “stable”, the “CYP3A4 activity (% of control activity)” value (CYP3A4) was >100% and the “CYP2D6 activity (% of control activity)” value (CYP2D6) was 92.0%. For the same molecule, the IC50 (SK2) was 5 to 12.5 µM, the “liver microsomal stability, Rat (%)” value [3, 6] was 77.0% and the “liver microsomal stability (in words)” value ([3]; rat) was “stable”. The IC50 (HCT116 cells; Homo sapiens, HCT-116, HCT116, 48 h treatment, 2.5–40 µM, read-out: relative IC50 (cell viability)) was 4.19 µM, the IC50 (HT29 cells [1]; Homo sapiens, HT-29, HT29, 48 h treatment, 2.5–40 µM, read-out: relative IC50 (cell viability)) was 4.18 µM and the “liver microsomal stability, Mouse (%)” value [4, 6] was 89.9%. For the same molecule, the “liver microsomal stability (in words)” value ([4]; mouse) was “stable”, the “CYP2C9 activity (% of control activity)” value (CYP2C9) was 96.8% and the IC50 (SK1) was 5 to 12.5 µM. For the same molecule, the “CYP1A2 activity (% of control activity)” value (CYP1A2) was 86.5% and the “apoptosis (annexin V assay)” value (HT29 cells [5]) was “increased apoptosis”.
